# Target: T1, YuiC (degraded K32-E218) (Bacillus subtilis, UniProt O32108)
# T1 construct: mature protein K32-E218, signal peptide removed, E. coli Rosetta 2 (DE3), His-tag cut by TEV leaving GIDPFT; partially proteolysed at or close to R52; residues 72-217 modelled; domain-swapped dimer, site formed by both chains
# T1 sequence (O32108 32-218): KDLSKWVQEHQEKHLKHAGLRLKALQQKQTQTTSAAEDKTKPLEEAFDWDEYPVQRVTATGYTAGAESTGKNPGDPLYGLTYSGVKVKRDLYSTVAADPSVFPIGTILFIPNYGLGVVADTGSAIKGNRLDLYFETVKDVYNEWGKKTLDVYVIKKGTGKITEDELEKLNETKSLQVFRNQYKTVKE
# Assay: X-ray crystal structure, […] Å
# Type: binding
# Conditions: 5 mM NAG in crystallisation, pH 6.0; bound at -2 site, one per chain
structure (smiles),measurement,value
"CC(=O)N[C@H]1C(O)O[C@H](CO)[C@@H](O)[C@@H]1O (stereo partly shown) [NAG, N-acetylglucosamine]","X-ray crystal structure, 1.21 Å",Crystallisation of YuiC in the presence of NAG gives a structure with a single

# — article PMC4499186, “Structure of the stationary phase survival protein YuiC from B.subtilis” (BMC Structural Biology, 2015)
